Laboratory results taken from patent US20250214977A1, “STAT6 INHIBITORS AND USES THEREOF” (Kymera Therapeutics, Inc., priority 2024, published 2025).
“And” between values parts separate entries of the source, which are not always exact repeats. Identical values can stand only once.

What follows are compounds tested on Phosphorylation of STAT6 in human A549 cells (assay: Phosphorylated STAT6 (pSTAT6) flow cytometry assay in human A549 cells). Conditions: read-out: STAT6 IL4 pSTAT6 assay in A549 cells: Average IC50.
Assay type: cell-based
Excerpt: Example 3. Phosphorylated STAT6 (pSTAT6) Flow Cytometry Assay in Human A549 Cells
Phosphorylation of STAT6 in human A549 cells was quantitatively measured using flow cytometry technology.

Compound | IC50
CC(=O)N1CCC=C(c2cc(-c3ccccc3C)c3cc(C(=O)N(C)C)[nH]c3c2F)C1 [Example I-890] | 100 to 1000 nM
COc1ccncc1-c1cc(C(=O)N2CCN(c3ncc(F)cc3OC)CC2)cc2cc(C3CCCN(C(=O)CCn4ccnn4)C3)[nH]c12 (stereo not shown) [Example I-1203] | 1000 to 10000 nM
C[C@H](Cn1ccnn1)C(=O)N1CCC=C(c2ccc3oc(C(=O)N(C)C)cc3c2)C1 (single isomer, unassigned) [Example I-818] | 100 to 1000 nM
CCc1cc(C(F)F)ncc1-c1cc(C2=CCCN(C(=O)CCn3ccnn3)C2)c(F)c2[nH]c(C(=O)N3Cc4cnn(CC)c4C3)cc12 [Example I-767] | > 100000 nM
COc1ccccc1-c1cc(C2=CCCN(C(=O)CCn3ccnn3)C2)c(F)c2[nH]c(C(=O)N3CCN(C4CC(F)(F)C4)CC3)cc12 [Example I-501] | 10000 to 100000 nM
CCn1ncc2c1CN(C(=O)c1cc3c(-c4ccccc4OC)cc(C4=CCCN(C(=O)CCn5ccnn5)C4)c(F)c3[nH]1)C2 [Example I-507] | 10000 to 100000 nM
COc1ccccc1-c1cc([C@H]2CCCN(C(=O)CCn3ccnn3)C2)c(F)c2[nH]c(C(=O)N(C)C)cc12 [Example I-1195] | > 100000 nM
COc1cc(F)cnc1N1CCN(C(=O)c2cc3c(Br)cc(C4=CCCN(C(=O)CCn5ccnn5)C4)c(F)c3[nH]2)CC1 [Example I-806, 1-(5-(4-bromo-7-fluoro-2-(4-(5-fluoro-3-methoxypyridin-2-yl)piperazine-1-carbonyl)-1H-indol-6-yl)-3,6-dihydropyridin-1(2H)-yl)-3-(1H-1,2,3-triazol-1-yl)propan-1-one] | 10000 to 100000 nM and 100 to 1000 nM
COc1cc(F)cnc1N1CCN(C(=O)c2cc3c(C4=CCC5(CC4)CC5)cc(C4=CCCN(C(=O)CCn5ccnn5)C4)c(F)c3[nH]2)CC1 [Example I-1159] | 100 to 1000 nM
COc1cc(F)ccc1-c1cc(C2=CCCN(C(=O)CCn3ccnn3)C2)c(F)c2[nH]c(C(=O)N3CCN(c4ncc(Cl)cc4OC)CC3)cc12 [Example I-459] | < 100 nM
CCc1ccncc1-c1cc(C2=CCCN(C(C)=O)C2)c(F)c2[nH]c(C(=O)N3CCN(c4cc(F)cnc4OC)CC3)cc12 [Example I-699] | 10000 to 100000 nM
CN(C)C(=O)c1cc2cc(C3=CCCN(C(=O)CCn4ccnn4)C3)cc(-c3cc(C(F)(F)F)nn3C)c2o1 [Example I-855] | < 100 nM
CCc1ccncc1-c1cc(C2=CCCN(C(=O)CCn3ccnn3)C2)c(F)c2[nH]c(C(=O)N3CCN(c4cccc(OC)n4)CC3)cc12 [Example I-480] | < 100 nM
COc1cccnc1N1CCN(C(=O)c2cc3c(-c4cc(C#N)ccn4)cc(C4=CCCN(C(=O)CCn5ccnn5)C4)c(F)c3[nH]2)CC1 [Example I-581] | < 100 nM
COc1ccccc1-c1cc(C2=CCCN(C(=O)CCn3ccnn3)C2)c(F)c2[nH]c(C(=O)N3CCN(Cc4ccc(Cl)cc4)CC3)cc12 [Example I-868] | 100 to 1000 nM
COc1cc(F)cnc1N1CCN(C(=O)c2cc3c(-c4ccnc(OC(F)F)c4)cc(C4=CCCN(C(=O)CCn5ccnn5)C4)c(F)c3[nH]2)CC1 [Example I-653] | < 100 nM
CCn1nccc1-c1cc(C2=CCCN(C(=O)CCn3ccnn3)C2)c(F)c2[nH]c(C(=O)N3CCN(c4ncccc4OC)CC3)cc12 [Example I-582] | < 100 nM
COc1ccc(Cl)cc1-c1cc(C2=CCCN(C(=O)CCn3ccnn3)C2)cc2[nH]c(C(=O)N(C)C)cc12 [Example I-1058] | < 100 nM
COc1ccccc1-c1cc(C2=CCCN(C(=O)CCn3ccnn3)C2)c(F)c2[nH]c(C(=O)N3CCN(c4cccnc4)CC3)cc12 [Example I-774] | < 100 nM
(S)-5-(1-(2-formyl-1,2,3,4-tetrahydroisoquinoline-3-carbonyl)-1,2,5,6-tetrahydropyridin-3-yl)-7-(2-methoxyphenyl)-N,N-dimethylbenzofuran-2-carboxamide [Example I-805] | > 100000 nM
COc1ccccc1-c1cc(C2=CCCN(C(=O)CCn3ccnn3)C2)c(F)c2[nH]c(C(=O)N3CCN(c4cc5cc[nH]c5nc4C#N)CC3)cc12 [Example I-401] | > 100000 nM
CCc1ccncc1-c1cc(C2=CCCN(C(=O)CCn3ccnn3)C2)c(F)c2[nH]c(C(=O)N3CCN(c4ncc(Cl)cc4OC)CC3)cc12 [Example I-472] | < 100 nM
COc1ccccc1-c1cc(C2=CCCN(C(=O)CCn3ccnn3)C2)c(F)c2[nH]c(C(=O)N3CCN(c4ncn5c4CCCC5)CC3)cc12 [Example I-1034] | < 100 nM
COc1cnccc1-c1cc(C2=CCCN(C(=O)CCn3ccnn3)C2)c(F)c2[nH]c(C(=O)N3CCN(c4ncc(F)cc4OC)CC3)cc12 [Example I-666] | > 100000 nM
CCOc1ccncc1-c1cc(C2=CCCN(C(=O)CCn3ccnn3)C2)c(F)c2[nH]c(C(=O)N3CCN(c4ncc(C)nc4OC)CC3)cc12 [Example I-1041] | < 100 nM
COc1ccccc1-c1cc(C2=CCCN(C(=O)CCn3ccnn3)C2)c(F)c2[nH]c(C(=O)N3CCN(c4cccn(C)c4=O)CC3)cc12 [Example I-1021] | < 100 nM
COc1ccccc1-c1cc(C2=CCCN(C(=O)CCn3ccnn3)C2)c(F)c2[nH]c(C(=O)Nc3cccn(C)c3=O)cc12 [Example I-1027] | 100 to 1000 nM
COc1ccncc1-c1cc(C2=CCCN(C(=O)CCn3ccnn3)C2)c(F)c2[nH]c(C(=O)N3CCN(c4ccccn4)C(C)C3)cc12 (stereo not shown) [Example I-568] | < 100 nM
COc1ccccc1-c1cc(C2=CCCN(C(=O)CCn3ccnn3)C2)c(F)c2[nH]c(C(=O)N3CCN(c4ncccc4C(C)C)CC3)cc12 [Example I-333] | < 100 nM
COC(=O)CCC#Cc1cc(C2=CCCN(C(=O)C3Cc4ccccc4CN3C=O)C2)cc2cc(C(=O)N(C)C)oc12 (stereo not shown) [Example I-823] | < 100 nM

Continued, values first:

IC50 | Compound
< 100 nM | COc1ccncc1-c1cc(C2=CCCN(C(=O)CCn3ccnn3)C2)c(F)c2[nH]c(C(=O)N3CCN(c4ncc(Cl)cc4OC)CC3)cc12 [Example I-458]
< 100 nM | COc1cccnc1N1CCN(C(=O)c2cc3c(-c4ccccc4OC(F)(F)F)cc(C4=CCCN(C(=O)CCn5ccnn5)C4)c(F)c3[nH]2)CC1 [Example I-558]
< 100 nM | CCc1ccncc1-c1cc(C2=CCCN(C(=O)CCn3cccn3)C2)c(F)c2[nH]c(C(=O)N3CCN(c4ncc(OC)cc4OC)CC3)cc12 [Example I-683]
< 100 nM | CCc1cc(C)ncc1-c1cc(C2=CCCN(C(=O)CCn3ccnn3)C2)c(F)c2[nH]c(C(=O)N3CCN(c4ncc(F)cc4OC)CC3)cc12 [Example I-742]
< 100 nM | COc1ccccc1-c1cc(C2=CCCN(C(=O)CCn3ccnn3)C2)c(F)c2[nH]c(C(=O)N3CCN(c4nccc5ccccc45)CC3)cc12 [Example I-363]
< 100 nM | COc1ccccc1-c1cc(C2CN(C(=O)CCn3ccnn3)CC(F)(F)C2)c(F)c2[nH]c(C(=O)N3Cc4cnn(C)c4C3)cc12 (stereo not shown) [Example I-512]
< 100 nM | COc1cc(F)ccc1-c1cc(C2=CCCN(C(=O)CCn3ccnn3)C2)c(F)c2[nH]c(C(=O)N3CCN(C4CC4)CC3)cc12 [Example I-588]
< 100 nM | COc1ccccc1-c1cc(C2=CCCN(C(=O)CCn3ccnn3)C2)c(F)c2[nH]c(C(=O)N3CCc4cc(C(F)(F)F)ccc4C3)cc12 [Example I-977]
< 100 nM | CCOc1ccc(-c2cc(C3=CCCN(C(=O)CCn4ccnn4)C3)c(F)c3[nH]c(C(=O)N4CCN(c5ncc(F)cc5OC)CC4)cc23)c(OC)c1 [Example I-661]
< 100 nM | COc1ccccc1-c1cc(C2=CCCN(C(=O)CCn3cccn3)C2)c(F)c2[nH]c(C(=O)N3CCN(c4ncccc4OC4CC4)CC3)cc12 [Example I-345]
< 100 nM | COc1cnccc1-c1cc(C2=CCCN(C(=O)CCn3ccnn3)C2)cc2cc(C(=O)N(C)C)oc12 [Example I-1067]
< 100 nM | COc1cc(F)cnc1N1CCN(C(=O)c2cc3c(C4=CCC(N5CCOCC5)CC4)cc(C4=CCCN(C(=O)CCn5ccnn5)C4)c(F)c3[nH]2)CC1 (stereo not shown) [Example I-1153]
< 100 nM | COc1ccccc1-c1cc(C2=CCCN(C(=O)CCn3ccnn3)C2)c(F)c2[nH]c(C(=O)N3CCN(c4ncccc4OC4CC4)CC3)cc12 [Example I-336]
< 100 nM | COc1ccccc1-c1cc(C2=CCCN(C(=O)CCn3ccnn3)C2)c(F)c2[nH]c(C(=O)N3CCN(c4ccccn4)CC3)cc12 [Example I-862]
< 100 nM | O=C(CCn1ccnn1)N1CCC=C(c2cc(-c3ccccc3)c3cc(C(=O)N4CCN(c5ncccc5OC5CC5)CC4)[nH]c3c2F)C1 [Example I-938]
< 100 nM | COc1ccccc1-c1cc(C2=CCCN(C(=O)CCn3ccnn3)C2)c(F)c2[nH]c(C(=O)N3CCN(c4nnn(C)c4C)CC3)cc12 [Example I-778]
< 100 nM | CN(C)C(=O)c1cc2cc(C3=CCCN(C(=O)CCn4ccnn4)C3)cc(CN3CC(N)C3)c2o1 [Example I-1180]
< 100 nM | COc1ccccc1-c1cc(C2=CCCN(C(=O)CCn3ccnn3)C2)c(F)c2[nH]c(C(=O)N3CCN(c4ccc(F)c(F)c4F)CC3)cc12 [Example I-769]
< 100 nM | COc1ccccc1-c1cc(C2=CCCN(C(=O)CCn3ccnn3)C2)c(F)c2[nH]c(C(=O)N3CCC(c4ccccc4OC)CC3)cc12 [Example I-422]
< 100 nM | COc1ccccc1-c1cc(C2=CCCN(C(=O)CCn3ccnn3)C2)c(F)c2[nH]c(C(=O)N3CCN(c4cn(C)c(=O)n(C)c4=O)CC3)cc12 [Example I-949]
< 100 nM | COc1ccccc1-c1cc(C2=CCCN(C(=O)CCn3ccnn3)C2)c(F)c2[nH]c(C(=O)N3CCN(c4cc(C)c5ncnn5c4)CC3)cc12 [Example I-909]
< 100 nM | COc1ccccc1-c1cc(C2=CCCN(C(=O)CCn3ccnn3)C2)c(F)c2[nH]c(C(=O)N3CCN(c4ncc(N5CCCCC5)cc4OC4CC4)CC3)cc12 [Example I-961]
< 100 nM | COc1ccccc1-c1cc(C2=CCCN(C(=O)CCn3ccnn3)C2)c(F)c2[nH]c(C(=O)N3CCC(Nc4ncccn4)CC3)cc12 [Example I-849]
< 100 nM | COc1cccnc1N1CCN(C(=O)c2cc3c(-c4ccccc4C#N)cc(C4=CCCN(C(=O)CCn5ccnn5)C4)c(F)c3[nH]2)CC1 [Example I-573]
< 100 nM | COc1cc(F)cnc1N1CCN(C(=O)c2cc3c(-c4ccc(C(C)(C)C#N)cc4)cc(C4=CCCN(C(=O)CCn5ccnn5)C4)c(F)c3[nH]2)CC1 [Example I-1142]
